According to US20170121344A1 (Siga Technologies, Inc., priority 2009, published 2017):
pEC50: −log10 of the molar value. Like-named read-outs stand apart in the source and are kept apart here.

System: Dengue-2 (Strain New Guinea C)
Experiment: Viral yield assay against Dengue-2 in Vero cells
Assay type: cell-based, Dengue virus
Conditions: Dengue virus; for pEC50: read-out: Activity (EC50 class) against Dengue-2 Virus in Vero cells; for EC50: read-out: Activity (EC50 in μM) DENV-2
In short: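 Vero cells were infected with dengue virus at an MOI of 0.1, treated with compound or DMSO vehicle, and kept at 37° C. Supernatant virus was harvested 48 hours post infection and titered on Vero cells, with EC50 derived from yield reduction.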

[1] = Vero cells, MOI 0.1, harvested 48 hours post infection
[2] = DENV2, viral yield assay, Vero cells, MOI 0.1, 48 hours post infection

SMILES | pEC50 [1] | EC50 [2] [µM] | other results
CCCCNC(=O)c1sc2nc3c(cc2c1NC(C)=O)COC(C)(C)C3 [Compound 237, 3-Acetylamino-7,7-dimethyl-7,8-dihydro-5H-pyrano[4,3-b]thieno[3,2-e]pyridine-2-carboxylic acid butylamide] | < 4.60 |  | 
COc1ccc(-c2ccc3c(N)c(C(=O)Nc4ccccc4C)sc3n2)cc1OC [Compound 581, 3-amino-6-(3,4-dimethoxyphenyl)-N-(o-tolyl)thieno[2,3-b]pyridine-2-carboxamide] |  | < 5 | 
COc1ccc(-c2ccc3c(N)c(C(=O)Nc4ccc(Br)c(C)c4)sc3n2)cc1OC [Compound 579, 3-amino-N-(4-bromo-3-methyl-phenyl)-6-(3,4-dimethoxyphenyl)thieno[2,3-b] pyridine-2-carboxamide] |  | < 5 | 
COCc1cc(C)nc2sc(C(=O)Nc3ccc(C)c(Cl)c3)c(N)c12 [Compound 229, 3-Amino-4-methoxymethyl-6-methyl-thieno[2,3-b]pyridine-2-carboxylic acid (3-chloro-4-methyl-phenyl)-amide] | < 4.60 |  | 
COc1ccc(NC(=O)c2sc3nc4c(cc3c2N)CCC4)cc1 [Compound 184, 3-Amino-6,7-dihydro-5H-cyclopenta[b]thieno[3,2-e]pyridine-2-carboxylic acid (4-methoxy-phenyl)-amide] |  |  | pEC50 (Vero, 48 h): < 4.60
CN(C)c1ccnc2sc(C(N)=O)c(N)c12 [Compound 166, 3-Amino-4-dimethylamino-thieno[2,3-b]pyridine-2-carboxylic acid amide] |  |  | pEC50 (Vero, 48 h): < 4.60
COc1ccccc1NC(=O)c1sc2nc3c(cc2c1N)CN(C)CC3 [Compound 58, 3-Amino-6-methyl-5,6,7,8-tetrahydro-thieno[2,3-b][1,6]naphthyridine-2-carboxylic acid (2-methoxy-phenyl)-amide] | > 5.30 |  | 
CN(C)CCNc1c(C(=O)Nc2nnc(-c3ccccc3)s2)sc2nc3c(cc12)CCCCC3 [Compound 315, 3-((2-(dimethylamino)ethyl)amino)-N-(5-phenyl-1,3,4-thiadiazol-2-yl)-6,7,8,9-tetrahydro-5H-cyclohepta[b]thieno [3,2-e]pyridine-2-carboxamide] |  |  | EC50 (DENV2, Vero cells): < 5 µM
Nc1c(C(=O)Nc2nccs2)sc2nc3c(c(-c4cccs4)c12)CCCCC3 [Compound 223, 3-Amino-4-thiophen-2-yl-6,7,8,9-tetrahydro-5H-1-thia-10-aza-cyclohepta[f]indene-2-carboxylic acid thiazol-2-ylamide] |  |  | pEC50 (Vero, 48 h): < 4.60
NC(=O)c1sc2nc3c(c(-c4ccco4)c2c1N)CCC3 [Compound 99, 3-Amino-4-furan-2-yl-6,7-dihydro-5H-cyclopenta[b]thieno[3,2-e]pyridine-2-carboxylic acid amide] |  |  | pEC50 (Vero, 48 h): 4.60 to 5.30
Cc1cc(C)c2c(N)c(C(=O)Nc3cccc(C)c3C)sc2n1 [Compound 181, 3-Amino-4,6-dimethyl-thieno[2,3-b]pyridine-2-carboxylic acid (2,3-dimethyl-phenyl)-amide] |  |  | pEC50 (Vero, 48 h): < 4.60
CCOC(=O)c1cc2c(N)c(C(=O)Nc3cccc(C(F)(F)F)c3)sc2nc1N [Compound 75, 3,6-Diamino-2-(3-trifluoromethyl-phenylcarbamoyl)-thieno[2,3-b]pyridine-5-carboxylic acid ethyl ester] | 4.60 to 5.30 |  | 
COCc1cc(C)nc2sc(C(=O)Nc3cccc(C(F)(F)F)c3)c(N)c12 [Compound 98, 3-Amino-4-methoxymethyl-6-methyl-thieno[2,3-b]pyridine-2-carboxylic acid (3-trifluoromethyl-phenyl)-amide] |  |  | pEC50 (Vero, 48 h): 4.60 to 5.30
CN1CCc2nc3sc(C(=O)Nc4cccc(C#N)c4)c(N)c3cc2C1 [Compound 112, 3-Amino-6-methyl-5,6,7,8-tetrahydro-thieno[2,3-b][1,6]naphthyridine-2-carboxylic acid (3-cyano-phenyl)-amide] | 4.60 to 5.30 |  | 
Cc1cc(C)c2c(n1)sc1c(=O)[nH]c(C)nc12 [Compound 153, 2,7,9-Trimethyl-3H-pyrido[3′,2′:4,5]thieno[3,2-d]pyrimidin-4-one] | < 4.60 |  | 
COc1cccc(-c2ccc3c(N)c(C(=O)Nc4ccc(C)c(F)c4)sc3n2)c1 [Compound 523, 3-amino-N-(3-fluoro-4-methyl-phenyl)-6-(3-methoxyphenyl)thieno[2,3-b] pyridine-2-carboxamide] |  | < 5 | 
COc1ccc(Cl)cc1NC(=O)c1sc2nc(-c3ccc(C)cc3)ccc2c1N [Compound 641, 3-amino-N-(5-chloro-2-methoxy-phenyl)-6-(p-tolyl)thieno[2,3-b]pyridine-2-carboxamide] |  | < 5 | 
COc1ccc(-c2ccc3c(N)c(C(=O)Nc4cccc(Cl)c4C)sc3n2)cc1OC [Compound 573, 3-amino-N-(3-chloro-2-methyl-phenyl)-6-(3,4-dimethoxyphenyl)thieno[2,3-b] pyridine-2-carboxamide] |  | < 5 | 
Cc1ccc(-c2ccc3c(N)c(C(=O)Nc4ccccc4)sc3n2)cc1 [Compound 642, 3-amino-N-phenyl-6-(p-tolyl)thieno[2,3-b]pyridine-2-carboxamide] |  | < 5 | 

SMILES | pEC50 [1] | EC50 [2] [µM] | other results
COc1ccc(NC(=O)c2sc3nc4c(cc3c2N)CN(C(C)C)CC4)cc1 [Compound 23, 3-Amino-6-isopropyl-5,6,7,8-tetrahydro-thieno[2,3-b][1,6]naphthyridine-2-carboxylic acid (4-methoxy-phenyl)-amide] | > 5.30 |  | 
CN1CCc2nc3sc(C(=O)Nc4ccc(Cl)cc4)c(N)c3c(-c3cccs3)c2C1 [Compound 36, 3-Amino-6-methyl-4-thiophen-2-yl-5,6,7,8-tetrahydro-thieno[2,3-b][1,6]naphthyridine-2-carboxylic acid (4-chloro-phenyl)-amide] | > 5.30 |  | 
Cc1cccc(NC(=O)c2sc3nc4c(cc3c2N)CCCCC4)c1 [Compound 117, 3-Amino-6,7,8,9-tetrahydro-5H-1-thia-10-aza-cyclohepta[f]indene-2-carboxylic acid m-tolylamide] | < 4.60 |  | 
N#Cc1cc2c(N)c(C(=O)Nc3ccccc3F)sc2nc1N [Compound 135, 3,6-Diamino-5-cyano-thieno[2,3-b]pyridine-2-carboxylic acid (2-fluoro-phenyl)-amide] | < 4.60 |  | 
CC(=O)c1cnc2sc(C(=O)Nc3cccc(F)c3)c(C)c2c1 [Compound 391, 5-acetyl-N-(3-fluorophenyl)-3-methyl-thieno[2,3-b]pyridine-2-carboxamide] |  | < 5 | 
CCN1CCCC(NC(=O)c2sc3nc(C)cc(COC)c3c2N)C1 (centres unmarked) [Compound 147, 3-Amino-4-methoxymethyl-6-methyl-thieno[2,3-b]pyridine-2-carboxylic acid (1-ethyl-piperidin-3-yl)-amide] | < 4.60 |  | 
Nc1c(C(=O)Nc2cc(C(F)(F)F)ccc2Cl)sc2nc3c(cc12)CCCC3 [Compound 193, 3-Amino-5,6,7,8-tetrahydro-thieno[2,3-b]quinoline-2-carboxylic acid (2-chloro-5-trifluoromethyl-phenyl)-amide] | < 4.60 |  | 
Cc1cc(C)c2c(C)c(C(=O)N3CCN(c4cnccn4)CC3)sc2n1 [Compound 404] |  | < 5 | 
Nc1c(C(=O)Nc2ccc(Br)cc2)sc2nc(-c3ccncc3)ccc12 [Compound 416, 3-amino-N-(4-bromophenyl)-6-(4-pyridyl)thieno[2,3-b]pyridine-2-carboxamide] |  | < 5 | 
Cc1c(Cl)cccc1NC(=O)c1sc2nc(-c3ccc(F)cc3)ccc2c1N [Compound 604, 3-amino-N-(3-chloro-2-methyl-phenyl)-6-(4-fluorophenyl)thieno[2,3-b]pyridine-2-carboxamide] |  | < 5 | 
N#Cc1cc2c(N)c(C(=O)Nc3ccccc3Br)sc2nc1N [Compound 134, 3,6-Diamino-5-cyano-thieno[2,3-b]pyridine-2-carboxylic acid (2-bromo-phenyl)-amide] |  |  | pEC50 (Vero, 48 h): < 4.60
Cc1ccc2c(N)c(C(=O)Nc3cccc(C(F)(F)F)c3)sc2n1 [Compound 367, 3-amino-6-methyl-N-(3-(trifluoromethyl)phenyl)thieno[2,3-b] pyridine-2-carboxamide] |  | < 5 | 
Cc1cc(NC(=O)c2sc3nc4c(c(-c5cccs5)c3c2N)CN(C)CC4)no1 [Compound 103, 3-Amino-6-methyl-4-thiophen-2-yl-5,6,7,8-tetrahydro-thieno[2,3-b][1,6]naphthyridine-2-carboxylic acid (5-methyl-isoxazol-3-yl)amide] | 4.60 to 5.30 |  | 
Cc1cccc(NC(=O)c2sc3nc(-c4cccs4)ccc3c2N)c1 [Compound 419, 3-amino-N-(m-tolyl)-6-(2-thienyl) thieno[2,3-b]pyridine-2-carboxamide] |  |  | EC50 (DENV2, Vero, 48 h): < 5 µM
Cc1ccc(Cl)cc1NC(=O)c1sc2nc(-c3ccc(F)cc3)ccc2c1N [Compound 621, 3-amino-N-(5-chloro-2-methyl-phenyl)-6-(4-fluorophenyl)thieno[2,3-b]pyridine-2-carboxamide] |  | < 5 | 
Cc1ccc(NC(=O)c2sc3nc4c(cc3c2N)CCCCC4)cc1 [Compound 175, 3-Amino-6,7,8,9-tetrahydro-5H-1-thia-10-aza-cyclohepta[f]indene-2-carboxylic acid p-tolylamide] | < 4.60 |  | 
C=CCc1c(C)nc2sc(C(=O)Nc3ccc([N+](=O)[O-])cc3)c(N)c2c1C [Compound 225, 5-Allyl-3-amino-4,6-dimethyl-thieno[2,3-b]pyridine-2-carboxylic acid (4-nitro-phenyl)-amide] | < 4.60 |  | 
CC(=O)c1ccc(NC(=O)c2sc3nc4c(c(-c5ccccc5)c3c2N)CN(C)CC4)cc1 [Compound 51, 3-Amino-6-methyl-4-phenyl-5,6,7,8-tetrahydro-thieno[2,3-b][1,6]naphthyridine-2-carboxylic acid (4-acetyl-phenyl)-amide] | > 5.30 |  | 
CCc1c(C)nc2sc(C(N)=O)c(N)c2c1C [Compound 160, 3-Amino-5-ethyl-4,6-dimethyl-thieno[2,3-b]pyridine-2-carboxylic acid amide] | < 4.60 |  | 
